Some results are limits rather than exact numbers.

One assay has as its target T1, M4 muscarinic receptor (Homo sapiens, UniProt P08173).
T1 construct: expressed in transfected cells; host or cells: CHO (M4-CHO)
T1 sequence (P08173 1-479): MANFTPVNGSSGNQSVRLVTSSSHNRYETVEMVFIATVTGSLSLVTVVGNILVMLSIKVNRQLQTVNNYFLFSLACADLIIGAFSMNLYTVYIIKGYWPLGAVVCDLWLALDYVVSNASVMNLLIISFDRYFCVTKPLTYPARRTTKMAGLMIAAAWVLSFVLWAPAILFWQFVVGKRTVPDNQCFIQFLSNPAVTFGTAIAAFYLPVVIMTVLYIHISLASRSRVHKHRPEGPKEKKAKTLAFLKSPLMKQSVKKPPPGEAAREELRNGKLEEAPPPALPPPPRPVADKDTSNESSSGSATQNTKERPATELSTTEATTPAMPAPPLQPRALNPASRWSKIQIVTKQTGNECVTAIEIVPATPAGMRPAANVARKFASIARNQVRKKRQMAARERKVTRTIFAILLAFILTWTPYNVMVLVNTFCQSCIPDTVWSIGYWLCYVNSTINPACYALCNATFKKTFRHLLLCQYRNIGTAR
Briefly: Functional mobilization of intracellular calcium (FLIPR) in M4-CHO cells. It is filed as cell-based. The following applies: Table 4; for Emax: 100% efficacy is the maximum response obtained with the Carbachol control; for M4 Activity: M4 receptor, calcium mobilization (FLIPR). In short, it runs like this: (§1)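 Intracellular calcium rise is measured by FLIPR fluorescence over 60 sec in CHO cells carrying human M1 or M4 receptors. Compounds are tested alone as agonists, or pre-incubated 15 min (or co-applied) ahead of carbachol at its EC80 to detect inhibition.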
For orientation: A change in cytosolic calcium serves as a functional read-out for many receptors and channels.

The next assay has as its target T2, M1 muscarinic receptor (Homo sapiens, UniProt P11229).
T2 construct: expressed in transfected cells; host or cells: CHO (M1-CHO)
T2 sequence (P11229 1-460): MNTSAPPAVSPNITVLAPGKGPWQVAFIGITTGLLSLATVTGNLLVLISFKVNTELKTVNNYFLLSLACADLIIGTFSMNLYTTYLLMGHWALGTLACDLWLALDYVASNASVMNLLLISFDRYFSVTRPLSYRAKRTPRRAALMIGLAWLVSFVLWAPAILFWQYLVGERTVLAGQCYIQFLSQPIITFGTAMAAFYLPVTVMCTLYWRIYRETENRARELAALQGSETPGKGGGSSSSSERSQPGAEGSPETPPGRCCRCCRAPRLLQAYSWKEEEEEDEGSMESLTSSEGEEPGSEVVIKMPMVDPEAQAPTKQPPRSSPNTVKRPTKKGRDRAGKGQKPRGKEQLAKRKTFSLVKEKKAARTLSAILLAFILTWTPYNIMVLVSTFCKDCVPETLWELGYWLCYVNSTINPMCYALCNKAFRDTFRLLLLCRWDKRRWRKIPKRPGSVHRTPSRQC
Briefly: Functional mobilization of intracellular calcium (FLIPR) in M1-CHO cells. Type of assay: cell-based. As to conditions: Table 4; for Emax: 100% efficacy is the maximum response obtained with the Carbachol control; for M1 Activity: M1 receptor, calcium mobilization (FLIPR). The essentials:
as §1

By Emax is commonly meant the maximal effect, on the per cent scale that the assay sets. In the case of `COCCN1CC2(CCN(C3CC4CCC(C4)C3)CC2)c2cc(F)ccc21` (stereo not drawn) [compound 884], on M4 muscarinic receptor, the Emax lay in the range of 25 to 100% and the “M4 Activity” value is “xxx (activity was measured to be less than 2.0 μM)”. In addition, at M1 muscarinic receptor, the Emax was 25 to 100% and the “M1 Activity” value is “xxx (activity was measured to be less than 2.0 μM)”.
Consider `CN(C)C(=O)N1CC2(CCN(C3CCN(C(=O)OCC(F)F)CC3)CC2)c2cc(F)ccc21` [compound 885], for which, on M4 muscarinic receptor, the Emax fell in the range of 25 to 100% and the “M4 Activity” value is “xxx (activity was measured to be less than 2.0 μM)”. Further, on M1 muscarinic receptor, the Emax is 25 to 100% and the “M1 Activity” value is “xxx (activity was measured to be less than 2.0 μM)”.
Take `CC#CCOC(=O)N1CC[C@@H](CN2CCC3(CC2)CN(C(C)=O)c2ccccc23)C1` [compound 886]: on M4 muscarinic receptor, the Emax fell in the range of 25 to 100% and the “M4 Activity” value is recorded as “xxx (activity was measured to be less than 2.0 μM)”. Besides, at M1 muscarinic receptor, the maximal response (Emax) is 25 to 100% and the “M1 Activity” value was “xxx (activity was measured to be less than 2.0 μM)”.
For the molecule `CN(C)C(=O)N1CC2(CCN(C3CCN(C(=O)c4ccccc4F)CC3)CC2)c2cc(F)ccc21` [compound 887], at M4 muscarinic receptor, the Emax is less than 25% and the “M4 Activity” value is reported as “x (activity was measured to be greater than 5.0 μM)”. On M1 muscarinic receptor, the Emax was 25 to 100%; the “M1 Activity” value is “xx (activity was measured to be between 2.0 μM and 5.0 μM)”.
Take `CC(=O)NC1CCC2(CCN(CCC3CCCN(C(=O)N(C)C)C3)CC2)c2ccccc21` (stereo not drawn) [compound 888]: at M4 muscarinic receptor, the Emax is less than 25% and the “M4 Activity” value is listed as “x (activity was measured to be greater than 5.0 μM)”. Besides, at M1 muscarinic receptor, the Emax lay within 25 to 100% and the “M1 Activity” value is recorded as “xxx (activity was measured to be less than 2.0 μM)”.
Take `O=C(N[C@H]1CCC2(CCN(CC3CCCCC3)CC2)c2ccccc21)C1CC1` [compound 889]: at M4 muscarinic receptor, the Emax was 25 to 100% and the “M4 Activity” value was “xxx (activity was measured to be less than 2.0 μM)”. Besides, at M1 muscarinic receptor, the Emax fell in the range of 25 to 100% and the “M1 Activity” value is “xxx (activity was measured to be less than 2.0 μM)”.
For `CCOC(=O)N1CCC(N2CCC3(CC2)CN(c2ccsc2)c2ccc(F)cc23)CC1` [compound 891], at M4 muscarinic receptor, the Emax lay within 25 to 100% and the “M4 Activity” value is listed as “xxx (activity was measured to be less than 2.0 μM)”. At M1 muscarinic receptor, the Emax was in the range of 25 to 100% and the “M1 Activity” value is “xxx (activity was measured to be less than 2.0 μM)”.
Turning to `CCC(C)(C)C1CCC(N2CCC3(CC2)CN(C(C)=O)c2ccc(F)cc23)CC1` (stereo not drawn) [compound 892], at M4 muscarinic receptor, the Emax is less than 25% and the “M4 Activity” value was “x (activity was measured to be greater than 5.0 μM)”. At M1 muscarinic receptor, the Emax is less than 25% and the “M1 Activity” value is reported as “x (activity was measured to be greater than 5.0 μM)”.
Regarding `CC(=O)N1CC2(CCN(C3CCN(c4cncc(CC(C)C)n4)CC3)CC2)c2ccccc21` [compound 893], on M4 muscarinic receptor, the Emax is less than 25% and the “M4 Activity” value is given as “x (activity was measured to be greater than 5.0 μM)”. Moreover, at M1 muscarinic receptor, the Emax was less than 25% and the “M1 Activity” value was “x (activity was measured to be greater than 5.0 μM)”.
Turning to `CC(=O)N1CC2(CCN(C3CCN(c4nccs4)CC3)CC2)c2ccccc21` [compound 894], on M4 muscarinic receptor, the Emax is less than 25% and the “M4 Activity” value is given as “x (activity was measured to be greater than 5.0 μM)”. On M1 muscarinic receptor, the Emax fell in the range of 25 to 100% and the “M1 Activity” value is recorded as “x (activity was measured to be greater than 5.0 μM)”.
Turning to `CN(C)C(=O)N1CC2(CCN(C3CCN(c4cnccn4)CC3)CC2)c2cc(F)ccc21` [compound 895], on M4 muscarinic receptor, the Emax was 25 to 100% and the “M4 Activity” value is reported as “xxx (activity was measured to be less than 2.0 μM)”. Moreover, on M1 muscarinic receptor, the Emax was 25 to 100% and the “M1 Activity” value is “xxx (activity was measured to be less than 2.0 μM)”.
As to `CCOC(=O)N1CCC(N2CCC3(CC2)CN(c2ccc(OC)nn2)c2ccc(F)cc23)CC1` [compound 896], on M4 muscarinic receptor, the Emax lay in the range of 25 to 100% and the “M4 Activity” value is recorded as “xxx (activity was measured to be less than 2.0 μM)”. Also, at M1 muscarinic receptor, the Emax lay within 25 to 100% and the “M1 Activity” value is “xxx (activity was measured to be less than 2.0 μM)”.
With `CCOC(=O)N1C2CCC1CC(N1CCC3(CC1)CN(C(C)=O)c1c(F)cc(F)cc13)C2` (stereo not drawn) [compound 897], on M4 muscarinic receptor, the Emax lay in the range of 25 to 100% and the “M4 Activity” value is listed as “xxx (activity was measured to be less than 2.0 μM)”. In addition, at M1 muscarinic receptor, the Emax lay within 25 to 100% and the “M1 Activity” value is on record as “xxx (activity was measured to be less than 2.0 μM)”.
For the molecule `Cc1cc(C(=O)N2CCC(N3CCC4(CC3)CN(C(=O)N(C)C)c3ccc(F)cc34)CC2)nn1C` [compound 898], on M4 muscarinic receptor, the Emax is less than 25% and the “M4 Activity” value is “x (activity was measured to be greater than 5.0 μM)”. Also, at M1 muscarinic receptor, the Emax was less than 25% and the “M1 Activity” value is “x (activity was measured to be greater than 5.0 μM)”.
As for `CN(C)C(=O)N1CC2(CCN(C3CCN(C(=O)c4ccoc4)CC3)CC2)c2cc(F)ccc21` [compound 900], at M4 muscarinic receptor, the Emax was less than 25% and the “M4 Activity” value is recorded as “x (activity was measured to be greater than 5.0 μM)”. On M1 muscarinic receptor, the Emax is less than 25%; the “M1 Activity” value was “xx (activity was measured to be between 2.0 μM and 5.0 μM)”.
Turning to `O=C1CC2(CCN([C@@H]3C[C@H]4CC[C@@H]3C4)CC2)c2ccc(Cl)cc21` [compound 901], at M4 muscarinic receptor, the Emax was 25 to 100%; the “M4 Activity” value is “xx (activity was measured to be between 2.0 μM and 5.0 μM)”. Besides, on M1 muscarinic receptor, the Emax was 25 to 100%; the “M1 Activity” value was “xx (activity was measured to be between 2.0 μM and 5.0 μM)”.
Regarding `CCOC(=O)N1CC2(CCN(C3CC4CCC3C4)CC2)c2cc(C)ccc21` (stereo not drawn) [compound 902], on M4 muscarinic receptor, the Emax is less than 25% and the “M4 Activity” value was “x (activity was measured to be greater than 5.0 μM)”. Moreover, on M1 muscarinic receptor, the Emax was 25 to 100% and the “M1 Activity” value was “x (activity was measured to be greater than 5.0 μM)”.
For the molecule `CCOC(=O)N1CCC(N2CCC3(CC2)CN(C(=O)N2CCOCC2)c2ccccc23)CC1` [compound 903], at M4 muscarinic receptor, the Emax lay in the range of 25 to 100% and the “M4 Activity” value is recorded as “xxx (activity was measured to be less than 2.0 μM)”. For the same molecule, at M1 muscarinic receptor, the Emax lay within 25 to 100%; the “M1 Activity” value was “xx (activity was measured to be between 2.0 μM and 5.0 μM)”.
For the molecule `O=C(O)C1CC2(CCN(C3CC4CCC3C4)CC2)c2ccccc21` (stereo not drawn) [compound 904], on M4 muscarinic receptor, the Emax was less than 25% and the “M4 Activity” value was “x (activity was measured to be greater than 5.0 μM)”. In addition, on M1 muscarinic receptor, the Emax is less than 25% and the “M1 Activity” value is “x (activity was measured to be greater than 5.0 μM)”.
Take `CCOC(=O)N1CCC(N2CCC3(CC2)CN(c2cncnc2)c2ccccc23)CC1` [compound 905]: on M4 muscarinic receptor, the Emax was 25 to 100% and the “M4 Activity” value is “xxx (activity was measured to be less than 2.0 μM)”. For the same molecule, at M1 muscarinic receptor, the Emax lay within 25 to 100% and the “M1 Activity” value is recorded as “xxx (activity was measured to be less than 2.0 μM)”.
Take `CCOC(=O)N1CCC(N2CCC3(CC2)CN(C(C)=O)c2c(-c4cccc(C)c4)cccc23)CC1` [compound 907]: on M4 muscarinic receptor, the Emax was less than 25% and the “M4 Activity” value is listed as “x (activity was measured to be greater than 5.0 μM)”. Also, at M1 muscarinic receptor, the Emax lay within 25 to 100% and the “M1 Activity” value was “x (activity was measured to be greater than 5.0 μM)”.
As to `CCOC(=O)N1CCC(N2CCC3(CC2)CN(c2ccc(OC)cc2)c2ccc(F)cc23)CC1` [compound 908], on M4 muscarinic receptor, the Emax was 25 to 100% and the “M4 Activity” value is “xxx (activity was measured to be less than 2.0 μM)”. Also, at M1 muscarinic receptor, the Emax is 25 to 100% and the “M1 Activity” value is recorded as “xxx (activity was measured to be less than 2.0 μM)”.
For `CCCOC(=O)N1CCC(N2CCC3(CC2)CN(C(C)=O)c2ccccc23)CC1` [compound 910], on M4 muscarinic receptor, the Emax is less than 25%; the “M4 Activity” value was “xx (activity was measured to be between 2.0 μM and 5.0 μM)”. At M1 muscarinic receptor, the Emax fell in the range of 25 to 100% and the “M1 Activity” value is reported as “xxx (activity was measured to be less than 2.0 μM)”.
Regarding `CCOC(=O)N1CCC(N2CCC3(CC2)CN(C(C)=O)c2c(-c4ccccc4C)cccc23)CC1` [compound 911], at M4 muscarinic receptor, the Emax was less than 25% and the “M4 Activity” value was “x (activity was measured to be greater than 5.0 μM)”. Further, on M1 muscarinic receptor, the maximal response (Emax) is less than 25% and the “M1 Activity” value is given as “x (activity was measured to be greater than 5.0 μM)”.

Values taken from patent US7786141B2 (Vertex Pharmaceuticals Incorporated, priority 2004, dated 2010).
